Measurements taken from patent publication US20240382509A1, “Cannabinoids C- and O-glycosides possessing anti-proliferative and anti-metastatic properties and process for preparation thereof” (Council of Scientific and Industrial Research, priority 2021, published 2024).
Like-named read-outs stand apart in the source and are kept apart here.

Legend:
[1] = tested on: Panc-1 cells; assay: MTT cell viability assay, Panc-1; format: cell-based; conditions: for IC50: pancreatic cancer cells
Experimental: (§1) Cell viability assay: The cell viability was determined by the standard MTT assay method. Briefly, Panc-1, HCT-116, A549, PC3, MIAPaca-2, HT-29, MDA-MB-231, MCF7 cells, and fR2cells were seeded in 96 well tissue culture plates (Nunc) at a density of 4×10^3 cells per well and treated with varying concentrations of the test compounds in triplicates. DMSO was taken as a vehicle, and its final concentration was maintained at 0.2% in the culture medium. Doxorubicin was employed as a positive control. After 44 h of incubation, MTT dye solution was added into the medium, and cells were incubated for another 4 h at 37° C. in 5% CO2. The amount of colored formazan derivatives formed was measured by taking optical density (OD) using a microplate reader (TECAN, Infinite M200 Pro) at 570 nm, and the percentage of cell viability was calculated. The IC50 values were calculated using GraphPad Prism software (Version 5.0).

[2] = tested on: MIAPaCa-2 cells; assay: MTT cell viability assay, MIAPaCa-2; format: cell-based, human
Experimental: as §1

[3] = tested on: HCT-116 cells; assay: MTT cell viability assay, HCT-116; format: cell-based; conditions: for IC50: colorectal adenocarcinoma cells
Experimental: as §1

[4] = tested on: human colorectal adenocarcinoma cell line (HT-29); assay: MTT cell viability assay, HT-29; format: cell-based; conditions: for IC50: human colorectal adenocarcinoma cell line
Experimental: as §1

[5] = tested on: lung adenocarcinoma cells (A549); assay: MTT cell viability assay, A549; format: cell-based
Experimental: as §1

[6] = tested on: PC3 cells; assay: MTT cell viability assay, PC3; format: cell-based
Experimental: as §1

[7] = tested on: MCF-7 cells; assay: MTT cell viability assay, MCF-7; format: cell-based; conditions: breast cancer cell of epithelial origin
Experimental: as §1

[8] = tested on: Panc-1 cells; assay: Colony formation assay; format: cell-based; conditions: Panc-1, 1000 cells/well, 5 days, compared to corresponding parent compounds
Experimental: Colony formation assay. […] cells were seeded onto 6 well plates with a seeding density of 1000 cells/well. The cells after attachment were treated with 2 (2a, 2b), 3 (3a, 3b), 4 (4a, 4b) along with DMSO as a vehicle control and incubated for 5-6 days. After incubation, the plates were washed with ice-cold PBS, and the cells were fixed with methanol for 5 min. After fixing. the cells were stained with 0.2% crystal violet stain for 1 h. The cells were then washed with distilled water to remove the stain and were observed under an inverted microscope at 20× magnification.
The anti-proliferative properties of glycosidic derivatives were further analysed by colony formation assay in pancreatic cancer cells. The novel C-glycosidic derivatives of compounds 1, 2, 3 and 4 viz 1b, 2b, 3b & 4b display anti-proliferative property (FIG. 2). Panc-1cells were seeded onto 6 well plates at seeding density 1000 cells/well and treated with indicated concentration of 1b, 2b, 3b and 4b derivatives along with their parent compounds and DMSO as vehicle for 5 days. Upon termination the cells were stained with crystal violet and images of field were photographed.

[9] = tested on: MIAPaCa-2 cells; assay: Cell scatter assay; format: cell-based, human; conditions: MIAPaCa-2, 1, 2, 3 μM, 36 h, compared to vehicle and parent molecule
Experimental: Cell scatter assay MIAPaCa-2 cells were seeded onto a 12 well plate at a seeding density of 500 cells/well and kept for 4-5 days, and there was the formation of scatter colonies since the cell line itself is a metastatic cell line. Accordingly, they were treated with 1 μM, 2 μM & 3 μM of compound 2, 2a, 2b, 3, 3a, 4, 4a & 4b for 36 h, and upon termination, they were washed with PBS and observed under an inverted microscope at 20× magnification (FIG. 3).

[10] = MTT cell viability assay, fR2 normal epithelial cells; format: cell-based, human; conditions: human, fR2 normal epithelial cells; MTT, 48 h; normal epithelial cell line; read-out: Cytotoxicity (IC50) fR2
Experimental: as §1

[11] = tested on: 4T1 mouse mammary carcinoma cells; assay: 4T1 allograft breast cancer model, anti-tumor and anti-metastatic efficacy; format: in vivo; conditions: tumor lysate immunoblot, 30 mg/kg
Experimental: In vivo anti-metastatic and anti-tumor efficacy studies. 4T1 mouse mammary carcinoma cells is a highly aggressive cell line that forms tumors when grafted in Balb/c mice. […] All the in vivo experimental protocols were approved by the Institutional Animal Ethics Committee, CPCSEA, of the Indian Institute of Integrative Medicine, Jammu. The animals were maintained at 22° C. with a 12 h light-dark cycle and free access to feed and water inside the institutional animal house. Proper care was taken to maintain them in a healthy condition and to avoid any risk of possible pathogenic contaminations. For subcutaneous implantation of 4T1 cells, the Balb/c mice were distributed into four groups bearing five mice in each group. For tumor induction, 1.5 million 4T1 cells were suspended in serum-free media and injected into the mammary pad of the animal and kept in the animal house for tumor induction. After the tumor reached an adequate size (30-150 mm^3) the mice in the allotted groups were treated with vehicle (normal saline), 15 and 30 mg/kg 2a & 30 mg/kg DIM (positive control) for every alternate day and was continued for two weeks. After the treatment, the mice were sacrificed by cervical dislocation, and the tumor was dissected out from the mammary pad, the tumor volume was measured, and images were taken. Subsequently, to examine the anti-metastatic property of the compound 2a, the chest cavity was dissected to remove the lungs, and after washing with PBS, the metastatic nodules in the lung due to 4T1 migration were checked and subsequently counted.
The anti-proliferative as well as anti-metastatic role of compound 2a was studied in 4T1 allograft breast cancer model. Briefly, 1.5×10^6 4T1 mammary breast cancer cells were injected in mouse mammary pad and kept undisturbed until the formation of tumor. Subsequently, the mice were treated with 15 and 30 mg/kg of compound 2a along with a positive control 30 mg/kg di-indoyl methane (DIM) molecule and normal saline as vehicle. The drugs were administered intraperitonially for each alternate day for 2 weeks. The animals were sacrificed and tumours were harvested from the mammary pad and tumor weight was measured (FIG. 7a & b). Moreover, the lungs were also removed and photographed to study the presence of metastatic patches. […] Furthermore, the tumors were subjected to tissue lysis and immunoblot analysis was performed to study the expression of Snail-1. Twist-1, STAT-3, Vimentin and E-cadherin.

[12] = MTT, 48 h, read-out: Cytotoxicity (IC50) Panc-1
[13] = MTT, 48 h, read-out: Cytotoxicity (IC50) MIAPaCa-2
[14] = MTT, 48 h, read-out: Cytotoxicity (IC50) HCT-116
[15] = MTT, 48 h, read-out: Cytotoxicity (IC50) HT-29
[16] = MTT, 48 h, read-out: Cytotoxicity (IC50) A549
[17] = MTT, 48 h, read-out: Cytotoxicity (IC50) PC3
[18] = MTT, 48 h, read-out: Cytotoxicity (IC50) MCF-7
[19] = Homo sapiens, PANC-1, 48 h, MTT, 48 h, read-out: Cytotoxicity (IC50) Panc-1
[20] = Homo sapiens, MIA PaCa-2, 48 h, MTT, 48 h, read-out: Cytotoxicity (IC50) MIAPaCa-2
[21] = Homo sapiens, HCT-116, 48 h, MTT, 48 h, read-out: Cytotoxicity (IC50) HCT-116
[22] = Homo sapiens, HT-29, 48 h, MTT, 48 h, read-out: Cytotoxicity (IC50) HT-29
[23] = Homo sapiens, A549, 48 h, MTT, 48 h, read-out: Cytotoxicity (IC50) A549
[24] = Homo sapiens, PC-3, 48 h, MTT, 48 h, read-out: Cytotoxicity (IC50) PC3
[25] = Homo sapiens, MCF7, 48 h, MTT, 48 h, read-out: Cytotoxicity (IC50) MCF-7

Row | SMILES | IC50 [1, 12] [µM] | IC50 [2, 13] [µM] | IC50 [3, 14] [µM] | IC50 [4, 15] [µM] | IC50 [5, 16] [µM] | IC50 [6, 17] [µM] | IC50 [7, 18] [µM] | IC50 [1, 19] [µM] | IC50 [2, 20] [µM] | IC50 [3, 21] [µM] | IC50 [4, 22] [µM] | IC50 [5, 23] [µM] | IC50 [6, 24] [µM] | IC50 [7, 25] [µM] | anti-proliferative potential in colony formation assay [8] | cell scattering [9] | further results
1 | CCCCCc1cc(O)c2c(c1)OC(C)(C)[C@@H]1CCC(C)=C[C@@H]21 [Compound 2, Δ^9-tetrahydrocannabinol, reference compound] | 21.1 | 4.47 | 19 | > 100 | 11.7 | > 100 | 43 | – | – | – | – | – | – | – | – | – | –
2 | CCCCCc1cc2c(c(O)c1[C@@H]1OC(CO)[C@@H](O)C(O)C1O)[C@@H]1C=C(C)CC[C@H]1C(C)(C)O2 (stereo partly drawn) [Compound 2b, Δ^9-tetrahydrocannabinol-2-C-β-D-glucopyranoside] | – | – | – | – | – | – | – | 3.16 | 1.59 | 43.2 | 10.8 | 1.32 | 28 | 7.4 | strong anti-proliferative potential | typical clumping of scatter cells | fold activity compared to parent compound, pancreatic cancer cells ([1]; ratio of IC50 parent vs derivative, Panc-1): 6.6 fold; fold anti-proliferative activity compared to parent compound, HT-29 ([4]; ratio of IC50 parent 2 vs derivative): more than 10 fold
3 | CCCCCc1cc(O)c2c(c1)OC(C)(C)[C@@H]1CC=C(C)C[C@@H]21 [Compound 3, Δ^8-tetrahydrocannabinol, reference compound] | 50.9 | 2.46 | 27.3 | > 100 | 11.6 | 28 | 26.7 | – | – | – | – | – | – | – | – | – | –
4 | CCCCCc1cc(O[C@@H]2OC(CO)[C@@H](O)C(O)C2O)c2c(c1)OC(C)(C)c1ccc(C)cc1-2 (stereo partly drawn) [Compound 4a, Cannabinol-1-O-β-D-glucopyranoside] | – | – | – | – | – | – | – | – | – | – | – | – | – | – | – | typical clumping of scatter cells | IC50 ([1]; Homo sapiens, PANC-1, 48 h, read-out: Cytotoxicity (IC50) Panc-1, MTT, 48 h): 3.16 µM; IC50 ([2]; Homo sapiens, MIA PaCa-2, 48 h, read-out: Cytotoxicity (IC50) MIAPaCa-2, MTT, 48 h): 2.58 µM; IC50 ([3]; Homo sapiens, HCT-116, 48 h, read-out: Cytotoxicity (IC50) HCT-116, MTT, 48 h): 2.98 µM; IC50 ([4]; Homo sapiens, HT-29, 48 h, read-out: Cytotoxicity (IC50) HT-29, MTT, 48 h): 3.53 µM; IC50 ([5]; Homo sapiens, A549, 48 h, read-out: Cytotoxicity (IC50) A549, MTT, 48 h): 3.01 µM; IC50 ([6]; Homo sapiens, PC-3, 48 h, read-out: Cytotoxicity (IC50) PC3, MTT, 48 h): 51.4 µM; IC50 ([7]; Homo sapiens, MCF7, 48 h, read-out: Cytotoxicity (IC50) MCF-7, MTT, 48 h): 7.74 µM; IC50 at 48 h [10]: > 100 µM
5 | CCCCCc1cc2c(c(O)c1[C@@H]1OC(CO)[C@@H](O)C(O)C1O)-c1cc(C)ccc1C(C)(C)O2 (stereo partly drawn) [Compound 4b, Cannabinol-2-C-β-D-glucopyranoside] | – | – | – | – | – | – | – | 13.9 | 8.31 | 3 | 11.5 | 22.6 | 39 | 43.1 | strong anti-proliferative potential | typical clumping of scatter cells | fold anti-proliferative activity compared to parent compound, HCT-116 ([3]; ratio of IC50 parent 4 vs derivative): > 15 fold
6 | c1ccc2c(Cc3c[nH]c4ccccc34)c[nH]c2c1 [DIM, di-indoyl methane, reference compound] | – | – | – | – | – | – | – | – | – | – | – | – | – | – | – | – | tumor expression of Snail-1, STAT-3 and Vimentin (positive control) [11]: decreases significantly
